Data on 4 compounds can be found in PMC6213020, “Identification of a Novel PPAR-γ Agonist through a Scaffold Tuning Approach” (International Journal of Molecular Sciences, 2018).

In general, EC50 refers to the concentration at which the effect is half-maximal.

One test addresses T1, PPAR-δ (Homo sapiens, UniProt Q03181).
T1 construct: purchased Invitrogen / Thermo Fisher Scientific (assay service)
T1 sequence (Q03181 211-439 limits assumed): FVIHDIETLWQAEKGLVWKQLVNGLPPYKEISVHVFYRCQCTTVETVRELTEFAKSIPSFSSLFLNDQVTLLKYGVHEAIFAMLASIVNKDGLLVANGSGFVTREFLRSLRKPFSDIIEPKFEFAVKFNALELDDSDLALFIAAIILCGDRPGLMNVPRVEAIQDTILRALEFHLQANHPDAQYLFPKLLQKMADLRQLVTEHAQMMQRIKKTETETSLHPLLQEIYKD
Briefly: TR-FRET LanthaScreen PPAR coactivator recruit assay, PPAR-δ (C33 peptide). Type of test: biochemical. The source says:
Binding of agonist to the PPAR LBD causes a conformational change around helix 12 in the LBD, resulting in higher affinity for the coactivator peptide. When the terbium label on the anti-GST antibody complexed with PPAR is excited at 340 nm, energy is transferred to the fluorescein label on the coactivator peptide and detected as emission at 520 nm. […] Based on the biology of the PPAR-coactivator peptide interaction, this ligand EC50 is a composite value representing the amount of ligand required to bind to receptor, effect a conformational change, and recruit coactivator peptide. Potency of compounds show similar order to their activity (Table 3). […] Ligands such as TZDs show little or no binding to PPAR-δ. Compound 11 and 15 have ortho or meta substituted benzoic acid as an acidic head group. Their acidic head groups might seem to be too large to fit within the narrow PPAR-δ pocket. In contrast, the compound 1 and 2 contains an acetic acid head group that complements the narrow PPAR-δ ligand binding. […] The potency and selectivity of compound 11 could be explained by harmonization of steric effect of acidic head group, length and rigidity of hydrophobic tail, and properly tuned aromatic linker system.
EC50 of compounds were determined by recruitment of transcriptional coactivators using the TR-FRET based Lanthascreen coactivator assays (Invitrogen, Carlsbad, CA, USA). Which was serviced by Thermo Fisher Scientific (Medicon, WI, USA) according to the LanthaScreen TR-FRET coregulator protocol and assay conditions. Coregulator peptide PGC1a, TRAP220/DRIP2 and C33 was used for the coactivator recruit assay of PPAR-α, -γ, and -δ, respectively.

Another test deals with T2, PPAR-α (Homo sapiens, UniProt Q07869).
T2 construct: host or cells: CV-1
T2 sequence (Q07869 1-468): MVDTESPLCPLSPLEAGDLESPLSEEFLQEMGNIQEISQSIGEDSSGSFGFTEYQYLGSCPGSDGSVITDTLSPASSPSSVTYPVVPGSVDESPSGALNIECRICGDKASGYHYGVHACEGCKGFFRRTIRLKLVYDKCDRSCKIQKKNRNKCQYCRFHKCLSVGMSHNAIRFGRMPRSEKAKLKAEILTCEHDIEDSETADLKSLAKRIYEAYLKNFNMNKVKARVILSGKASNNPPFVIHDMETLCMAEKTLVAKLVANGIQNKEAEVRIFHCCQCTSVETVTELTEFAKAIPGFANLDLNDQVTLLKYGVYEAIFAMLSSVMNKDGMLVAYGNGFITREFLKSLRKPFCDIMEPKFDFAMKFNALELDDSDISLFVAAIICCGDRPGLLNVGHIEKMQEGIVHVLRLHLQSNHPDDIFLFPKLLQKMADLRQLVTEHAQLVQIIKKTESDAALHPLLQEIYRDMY
In words: cell-based PPAR transactivation (luciferase) assay, PPAR-α. As to conditions: 24 h; compounds 10 µM; relative to maximum activation with GW7647 (10 µM); PPAR-Luc in CV-1 cells; read-out: % max PPAR-α. As for the experimental part:
The PPAR activities of the synthesized dichloroanilide-linked indole analogs were assessed using a standard cell-based transactivation assay in CV-1 cells. GW7647 [42], pioglitazone, and GW0742 [43] were used as positive controls for PPAR-α, -γ, and -δ, respectively. These three positive controls presented the maximum activation for each PPAR subtype. The activity of the compounds was presented as the activation percentage (%) relative to the maximum values of the positive controls at the indicated concentrations.
Transient transfection and luciferase assay was carried out. CV-1 cells were seeded in 48-well plates at a density of 1.5 × 10^5 cells/well in Dulbecco’s modified Eagle’s medium (DMEM) with containing 10% fetal bovine serum (FBS). The cells were transiently transfected with plasmid mixtures containing PPAR-α/γ expression vector and tk-PPRE-luciferase (Luc) vector for 6 h and then treated with the samples for 24 h. HEK293t cells were seeded in a 60-mm dish at a density of 1.5 × 10^6 cells/dish. After transfection with the plasmid mixtures containing PPAR-δ expression vector and Luc vector for 6 h, the cells were transferred to a 96-well plate and treated with the samples. To normalize the transfection efficiency, a β-galactosidase plasmid was cotransfected. The luciferase activity in the cell lysates was measured using a luciferase assay system (Promega Corp., Madison, WI, USA), and the β-galactosidase activity was determined by measuring the absorbance at 410 nm using an ELISA plate reader. The data were expressed as the relative luciferase activity divided by the β-galactosidase activity. All constructs were kindly gifted by Dr. Ronald M. Evans at The Salk Institute (La Jolla, CA, USA).

In the case of `O=C(COc1ccc2c(ccn2Cc2ccccc2C(=O)O)c1)Nc1ccc(Cl)cc1Cl` [Compound 12, 2-((5-(2-((2,4-Dichlorophenyl)amino)-2-oxoethoxy)-1H-indol-1-yl)methyl)benzoic acid], the midpoint of the response at PPAR-δ, the EC50, lay at 32.6 µM. For the same compound, on PPAR-α, the activation at 10 µM turned out to be 105.1 ± 0.41%.

Consider `O=C(COc1ccc2ccn(Cc3ccccc3C(=O)O)c2c1)Nc1ccc(Cl)cc1Cl` [Compound 13, 2-((6-(2-((2,4-Dichlorophenyl)amino)-2-oxoethoxy)-1H-indol-1-yl)methyl)benzoic acid], for which the EC50 on PPAR-δ was more than 100 µM. In addition, on PPAR-α, the activation at 10 µM is 51.84 ± 0.25%.

Compound `O=C(COc1ccc2ccn(Cc3cccc(C(=O)O)c3)c2c1)Nc1ccc(Cl)cc1Cl` [Compound 15, 3-((6-(2-((2,4-Dichlorophenyl)amino)-2-oxoethoxy)-1H-indol-1-yl)methyl)benzoic acid] showed an EC50 at PPAR-δ of more than 100 µM. For the same compound, the activation at 10 µM at PPAR-α was determined as 78.15 ± 0.04%.

For `O=C(COc1ccc2c(c1)c(Cc1ccccc1)cn2Cc1ccccc1C(=O)O)Nc1ccc(Cl)cc1Cl` [Compound 18, 2-((3-Benzyl-5-(2-((2,4-dichlorophenyl)amino)-2-oxoethoxy)-1H-indol-1-yl)methyl)benzoic acid], the midpoint of the response at PPAR-δ, the EC50, lay at 28.1 µM. Besides, the activation at 10 µM at PPAR-α worked out at 23.79 ± 0.11%.
